From patent US20230063230A1, “NURR1 RECEPTOR MODULATORS” (priority 2019, published 2023) come the findings set out here.

The target of assay [1] is T1, Nurr1 (Homo sapiens, UniProt P43354). The experiment in a line: Binding SPR.
The target in assay [2] is T1, Nurr1. In words: Binding MST.
The next assay has as its system Vmat2 in MN9D. In words: cells. Particulars: cpds tested at 10 μM, analogs of compound 87, read-out: qPCR MN9D Vmat2. The format is cell-based.
A further assay deals with Nurr1 in MN9D. In words: qPCR MN9D Nurr1. The format is cell-based. Particulars: cpds tested at 10 μM, analogs of compound 87.

Molecules are shown by their SMILES.

T1 sequence (P43354 360-595 limits assumed): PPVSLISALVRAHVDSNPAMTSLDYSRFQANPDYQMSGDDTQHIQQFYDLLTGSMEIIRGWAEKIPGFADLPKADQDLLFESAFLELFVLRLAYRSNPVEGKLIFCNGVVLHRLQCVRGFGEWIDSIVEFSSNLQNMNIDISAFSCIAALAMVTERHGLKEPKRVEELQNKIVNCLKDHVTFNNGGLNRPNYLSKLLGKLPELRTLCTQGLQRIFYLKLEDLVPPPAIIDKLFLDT

For the compound `CC(C)(NC(=O)c1cc(Cl)cc(Cl)c1)c1cnn(CCN)c1` [SP 155, N-(2-(1-(2-aminoethyl)-1H-pyrazol-4-yl)propan-2-yl)-3,5-dichlorobenzamide], the “Binding SPR” value on Nurr1 [1] (analogs of compound 87) was “+”. Moreover, the “Binding MST” value on Nurr1 [2] (analogs of compound 87) is “+”.

On to `CC(C)(NC(=O)c1ccc(Cl)c(Cl)c1)c1cn(CCc2ccc(Cl)c(Cl)c2)nn1` [SP 146, 3,4-dichloro-N-(2-(1-(3,4-dichlorophenethyl)-1H-1,2,3-triazol-4-yl)propan-2-yl)benzamide], for which the “Binding SPR” value on Nurr1 [1] (analogs of compound 85) is “+”.

As to `CC(C)(NC(=O)c1cc(Cl)cc(Cl)c1)c1cn(CCc2ccc(Cl)c(Cl)c2)nn1` [SP 100, 3,5-dichloro-N-(2-(1-(3,4-dichlorophenethyl)-1H-1,2,3-triazol-4-yl)propan-2-yl)benzamide], the “Binding SPR” value at Nurr1 [1] (analogs of compound 87) is recorded as “+”.

For `CC(C)(NC(=O)c1cc(Cl)cc(Cl)c1)c1cn(CCSC(=O)c2ccccc2)nn1` [SP 164, S-2-(4-(2-(3,5-dichlorobenzamido)propan-2-yl)-1H-1,2,3-triazol-1-yl)ethyl benzothioate], the “Binding SPR” value on Nurr1 [1] (analogs of compound 87) is on record as “+”. Besides, the fold induction at 10 µM in the assay on Vmat2 in MN9D was more than 4.

In the case of `C=CC(=O)NNC(=O)COc1ccc(Cl)c(Cl)c1` [UNI6-001, N′-(2-(3,4-dichlorophenoxy)acetyl)acrylohydrazide], the “Binding MST” value on Nurr1 [2] (analogs of compound 85) was “+”.

As to `CC(=O)SCCn1cc(C(C)(C)NC(=O)c2cnc3ccccc3c2)nn1` [SP 194, S-2-(4-(2-(quinoline-3-carboxamido)propan-2-yl)-1H-1,2,3-triazol-1-yl)ethyl ethanethioate], the fold induction at 10 µM in the assay with Nurr1 in MN9D was more than 4; in the assay with Vmat2 in MN9D it was more than 1.5.

Consider `CC(C)(NC(=O)c1cc(Cl)cc(Cl)c1)c1cn(-c2ccoc2)nn1` [GWL 3.001, 3,5-dichloro-N-(2-(1-(furan-3-yl)-1H-1,2,3-triazol-4-yl)propan-2-yl)benzamide], for which the “Binding SPR” value on Nurr1 [1] (analogs of compound 87) was “+”.

Consider `O=C(COc1ccc(Cl)c(Cl)c1)NCCc1ccc(O)c(O)c1` [SP 60, 2-(3,4-dichlorophenoxy)-N-(3,4-dihydroxyphenethyl)acetamide], for which the “Binding SPR” value on Nurr1 [1] (analogs of compound 85) is on record as “+”. On Nurr1 [2] (analogs of compound 85), the “Binding MST” value is “+”.

On to `CC(=O)SCCn1cc(C(C)(C)NC(=O)c2cc(Cl)cc(Cl)c2)cn1` [SP 184, S-2-(4-(2-(3,5-dichlorobenzamido)propan-2-yl)-1H-pyrazol-1-yl)ethyl ethanethioate], for which the fold induction at 10 µM in the assay with Nurr1 in MN9D is more than 4; in the assay on Vmat2 in MN9D, more than 1.5.

For `CC(=O)SCCn1cc(C(C)(C)NC(=O)c2cc(Cl)cc(Cl)c2)nn1` [SP 151, S-2-(4-(2-(3,5-dichlorobenzamido)propan-2-yl)-1H-1,2,3-triazol-1-yl)ethyl ethanethioate], the fold induction at 10 µM with Vmat2 in MN9D was more than 1.5.

On to `CC(C)(NC(=O)c1cc(Cl)cc(Cl)c1)c1cn(CCc2ccc(Br)cc2)nn1` [SP 147, N-(2-(1-(4-bromophenethyl)-1H-1,2,3-triazol-4-yl)propan-2-yl)-3,5-dichlorobenzamide], for which the “Binding SPR” value on Nurr1 [1] (analogs of compound 87) is on record as “+”.

For `CC(C)(NC(=O)c1cc(Cl)cc(Cl)c1)c1cn(CC(=O)O)nn1` [GWL 2.131, 2-(4-(2-(3,5-dichlorobenzamido)propan-2-yl)-1H-1,2,3-triazol-1-yl)acetic acid], the “Binding SPR” value on Nurr1 [1] (analogs of compound 87) was “+”.

In the case of `CC(C)(NC(=O)c1cc(F)cc(F)c1)c1cn(CCS)nn1` [SP 158, 3,5-difluoro-N-(2-(1-(2-mercaptoethyl)-1H-1,2,3-triazol-4-yl)propan-2-yl)benzamide], the “Binding SPR” value on Nurr1 [1] (analogs of compound 87) is listed as “+”. Besides, the “Binding MST” value at Nurr1 [2] (analogs of compound 87) is “++”.

For the compound `CC(C)(NC(=O)c1cc(Cl)cc(Cl)c1)c1cn(CC(N)=O)nn1` [GWL 3.008, N-(2-(1-(2-amino-2-oxoethyl)-1H-1,2,3-triazol-4-yl)propan-2-yl)-3,5-dichlorobenzamide], the “Binding SPR” value on Nurr1 [1] (analogs of compound 87) is listed as “+”. Moreover, the “Binding MST” value on Nurr1 [2] (analogs of compound 87) is on record as “+”.

With `COc1cc(OC)cc(C(=O)NC(C)(C)c2cn(CCSC(C)=O)nn2)c1` [SP 193, S-2-(4-(2-(3,5-dimethoxybenzamido)propan-2-yl)-1H-1,2,3-triazol-1-yl)ethyl ethanethioate], the fold induction at 10 µM in the assay with Vmat2 in MN9D was more than 1.5.

Consider `CC(C)(NC(=O)c1cc(Cl)cc(Cl)c1)c1cnn(COCC[Si](C)(C)C)c1` [SP 174, 3,5-dichloro-N-(2-(1-((2-(trimethylsilyl)ethoxy)methyl)-1H-pyrazol-4-yl)propan-2-yl)benzamide], for which the fold induction at 10 µM in the assay on Nurr1 in MN9D is more than 4. Also, the “Binding SPR” value on Nurr1 [1] (analogs of compound 87) is reported as “+”.

As to `C=CC(=O)n1cc(C(C)(C)NC(=O)c2cc(Cl)cc(Cl)c2)cn1` [SP 162, N-(2-(1-acryloyl-1H-pyrazol-4-yl)propan-2-yl)-3,5-dichlorobenzamide], the “Binding MST” value at Nurr1 [2] (analogs of compound 87) is on record as “++”.

Regarding `C=CS(=O)(=O)NNC(=O)COc1ccc(Cl)c(Cl)c1` [UNI6-003, N′-(2-(3,4-dichlorophenoxy)acetyl)ethenesulfonohydrazide], on Nurr1 [2] (analogs of compound 85), the “Binding MST” value was “+”.

Turning to `CSSCCn1cc(C(C)(C)NC(=O)c2cc(Cl)cc(NC(C)=O)c2)nn1` [SP 183], the “Binding SPR” value on Nurr1 [1] (analogs of compound 87) was “+”. Further, the “Binding MST” value at Nurr1 [2] (analogs of compound 87) was “+”.

For `CC(C)(NC(=O)c1cc(Cl)cc(Cl)c1)c1cn(CCC(=O)O)nn1` [GWL 2.129, 3-(4-(2-(3,5-dichlorobenzamido)propan-2-yl)-1H-1,2,3-triazol-1-yl)propanoic acid], the “Binding SPR” value at Nurr1 [1] (analogs of compound 87) was “+”.

`O=C(COc1ccc(Cl)c(Cl)c1)NCc1ccc(O)c(O)c1` [SP 95, 2-(3,4-dichlorophenoxy)-N-(3,4-dihydroxybenzyl)acetamide]: the “Binding SPR” value on Nurr1 [1] (analogs of compound 85) is “+”. The “Binding MST” value on Nurr1 [2] (analogs of compound 85) is listed as “+”.

As for `CC(C)(NC(=O)c1cc(Cl)cc(Cl)c1)c1cn(Cc2ccccc2)nn1` [SP 98, N-(2-(1-benzyl-1H-1,2,3-triazol-4-yl)propan-2-yl)-3,5-dichlorobenzamide], the “Binding SPR” value on Nurr1 [1] (analogs of compound 87) is reported as “+”. Further, on Nurr1 [2] (analogs of compound 87), the “Binding MST” value was “+”.

As for `CCn1cc(C(C)(C)NC(=O)c2cc(Cl)cc(Cl)c2)nn1` [SP 65, 3,5-dichloro-N-(2-(1-ethyl-1H-1,2,3-triazol-4-yl)propan-2-yl)benzamide], the “Binding SPR” value on Nurr1 [1] (analogs of compound 87) was “+”. Besides, the “Binding MST” value on Nurr1 [2] (analogs of compound 87) is reported as “+”.

For `CC(C)(NCc1cc(Cl)cc(Cl)c1)c1cn(CCc2ccc(Cl)c(Cl)c2)nn1` [SP 136, N-(3,5-dichlorobenzyl)-2-(1-(3,4-dichlorophenethyl)-1H-1,2,3-triazol-4-yl)propan-2-amine], the “Binding SPR” value on Nurr1 [1] (analogs of compound 87) was “+”. The “Binding MST” value at Nurr1 [2] (analogs of compound 87) is on record as “+”.

`COc1ccc(Cn2cc(C(C)(C)NC(=O)c3cc(Cl)cc(Cl)c3)nn2)cc1` [SP 178, 3,5-dichloro-N-(2-(1-(4-methoxybenzyl)-1H-1,2,3-triazol-4-yl)propan-2-yl)benzamide]: at Nurr1 [2] (analogs of compound 87), the “Binding MST” value was “+”.

Turning to `CC(C)(NC(=O)c1ccccc1)c1cn(CCc2ccc(Cl)c(Cl)c2)nn1` [SP 138, N-(2-(1-(3,4-dichlorophenethyl)-1H-1,2,3-triazol-4-yl)propan-2-yl)benzamide], the “Binding SPR” value on Nurr1 [1] (analogs of compound 87) is on record as “+”. Further, at Nurr1 [2] (analogs of compound 87), the “Binding MST” value is “+”.

Take `CC(C)(NC(=O)c1cc(Cl)cc(Cl)c1)c1cn(CCc2ccccc2)nn1` [SP 99, 3,5-dichloro-N-(2-(1-phenethyl-1H-1,2,3-triazol-4-yl)propan-2-yl)benzamide]: the “Binding SPR” value at Nurr1 [1] (analogs of compound 87) is reported as “+”. In addition, the “Binding MST” value on Nurr1 [2] (analogs of compound 87) is “+”.

In the case of `CC(C)(NC(=O)c1cc(Cl)cc(Cl)c1)c1cn(CCC(N)=O)nn1` [GWL 2.154, N-(2-(1-(3-amino-3-oxopropyl)-1H-1,2,3-triazol-4-yl)propan-2-yl)-3,5-dichlorobenzamide], the “Binding SPR” value on Nurr1 [1] (analogs of compound 87) is listed as “+”.
